In patent US8703811B2, “Small molecule inhibitors of Plasmodium falciparum dihydroorotate dehydrogenase” (Genzyme Corporation, priority 2008, dated 2014):
Read-outs that look alike come from different tables or passages of the source.

Experiments:
pfDHODH = pfDHODH (Plasmodium falciparum (isolate 3D7), UniProt Q08210); assay: DHODH chromogen reduction (DCIP) assay, pfDHODH; format: biochemical, P. falciparum; details: for IC50: read-out: pfDHODH IC50
hsDHODH = hsDHODH (Homo sapiens (Human), UniProt Q02127); assay: DCIP assay, hsDHODH; format: biochemical
Sequence of hsDHODH (Q02127 29-395 limits assumed): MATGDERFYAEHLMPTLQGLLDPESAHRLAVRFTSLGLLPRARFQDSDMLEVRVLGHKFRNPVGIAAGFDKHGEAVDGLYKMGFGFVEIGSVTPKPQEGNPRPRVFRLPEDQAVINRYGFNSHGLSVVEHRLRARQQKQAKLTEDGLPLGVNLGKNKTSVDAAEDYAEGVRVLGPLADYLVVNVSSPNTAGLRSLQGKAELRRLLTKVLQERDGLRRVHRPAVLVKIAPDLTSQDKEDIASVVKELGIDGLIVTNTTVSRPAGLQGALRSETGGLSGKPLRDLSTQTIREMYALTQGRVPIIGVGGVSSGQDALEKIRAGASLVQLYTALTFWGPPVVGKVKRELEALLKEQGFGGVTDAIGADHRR

P. falciparum 3D7 = assay: Inhibition of in vitro P. falciparum culture, [3H]-hypoxanthine uptake, 3D7; format: cell-based; details: for EC50: read-out: 3D7 EC50; for IC50: read-out: 3D7 IC50
Outline: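 Parasite growth inhibition measured as relative reduction of [3H]-hypoxanthine uptake in in vitro cultures. Values from non-linear regression fit, using relative growth velocity in place of product-formation rate.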

Log D measurement = format: physicochemical
Source text: Many standard techniques are known in the art to establish the distribution coefficient of a compound between two particular solvents. The following description is one such technique that could be used to determine the distribution coefficient: The shake-flask method, which consists of dissolving some of the compound in a volume of octanol and water, then physically shaking the mixture and allowing the two solvents to fully separate. The concentration of the compound in each solvent is then measured. The most common method of measuring the distribution of the solute is by HPLC or UV/Vis spectroscopic techniques.

[1] = Renal Proximal Tubule Epithelial Cell Toxicity Screen; format: cell-based
Description: The Renal Proximal Tubule Epithelial Cell Toxicity Screen is designed to determine whether compound mixtures, breakouts or single compounds are toxic to normal renal epithelial cells. […] Basically, the screen consists of plating renal epithelial cells, exposing them to the desired compound(s) for 4 days and measuring cell viability using the Alamar Blue reagent.
Harvested Kidney Epithelial cells were diluted in REGM to 1.5×10^4 cells/mL. […] NOTE: One plate, the T=0 plate required that 20-30 wells be seeded, and all the other plates had 96 wells seeded. Plates were incubated in 37° C./5% CO2 incubator for 24 hours.
(§1) Alamar Blue solution (25 μL/well) was added to the T=0 plate and mixed. The plate was incubated in 37° C./5% CO2 incubator for 4 hours, mixed and then the fluorescence was measured. 10% Tween 20 stock (10 μL) was added into rows A-D in column 1 (positive control). DMSO (0.5 μL) was added into column 2 (negative control). Compounds were placed into designated wells for desired testing as follows:
Plates were mixed on the shaker, and then incubated in 37° C./5% CO2 incubator for 96 hours. Day 6:
Alamar Blue solution (25 μL/well) was added to the plates containing the compounds and mixed. Plates were incubated in 37° C./5% CO2 incubator for 4 hours, mixed and the fluorescence was measured.

[2] = Normal Human Dermal Fibroblast Toxicity Screen; format: cell-based; details: human, normal human dermal fibroblasts; four days exposure, Alamar Blue; read-out: Dermal Fibroblast LC50
Description: The Normal Human Dermal Fibroblast Toxicity Screen Protocol is designed to determine whether compound mixtures, breakouts or single compounds are toxic to normal human dermal fibroblasts. The screen involves plating the dermal fibroblasts and then exposing them to the compounds for four days, then cell viability is measured using Alamar Blue reagent.
Harvested Dermal Fibroblast cells were diluted in Growth Media to 0.25 to 0.3×10^5 cells/mL. […] NOTE: One plate, the T=0 plate required that 20-30 wells be seeded and all the other plates had 96 wells seeded. Plates were incubated in 37° C./5% CO2 incubator for 24 hours.
as §1, with “the plate was agitated.” for “mixed.”, “plate” for “plate was incubated”, “incubator was incubated” for “incubator”, “3” for “4”, “agitated the” for “mixed”, “and” for “and then”
Plates were mixed on the shaker, then incubated in 37° C./5% CO2 incubator for 96 hours.
Alamar Blue solution (25 μL/well) was added to the plates containing the compounds, and the plates were agitated. The plates were incubated in 37° C./5% CO2 incubator for 3 hours, agitated and then the fluorescence was measured.

[3] = Table 3, DCIP assay, 20 nM pfDHODH
[4] = Table 2b, read-out: Hu (human DHODH) IC50
[5] = Table 3, DCIP assay, 20 nM hsDHODH, read-out: hsDHODH IC50
[6] = Plasmodium falciparum, 3D7, Table 2b
[7] = Plasmodium falciparum, 3D7, Table 3, [3H]-hypoxanthine uptake

Sequence of pfDHODH (Q08210 159-565 limits assumed): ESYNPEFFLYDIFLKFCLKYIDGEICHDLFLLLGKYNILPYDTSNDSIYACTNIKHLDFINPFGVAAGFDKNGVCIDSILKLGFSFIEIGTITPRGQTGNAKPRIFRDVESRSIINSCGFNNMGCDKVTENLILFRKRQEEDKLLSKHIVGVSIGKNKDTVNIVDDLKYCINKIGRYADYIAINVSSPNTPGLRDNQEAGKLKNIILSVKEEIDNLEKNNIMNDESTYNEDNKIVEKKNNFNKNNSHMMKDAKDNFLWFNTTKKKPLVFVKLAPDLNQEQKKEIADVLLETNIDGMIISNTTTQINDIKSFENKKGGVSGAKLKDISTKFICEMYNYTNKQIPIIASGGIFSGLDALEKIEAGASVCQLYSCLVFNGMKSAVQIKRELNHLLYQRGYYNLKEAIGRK

## CCCNC(=O)c1ccc(-n2c(C)nc3ccccc32)s1 [Compound 12, 5-(2-methyl-1H-benzo[d]imidazol-1-yl)-N-propylthiophene-2-carboxamide]
pfDHODH; Table 2b
  IC50: 172 nM
pfDHODH; [3]
  IC50: 170 nM
hsDHODH; [4]
  IC50: > 30000 nM
hsDHODH; [5]
  IC50: > 30000 nM
P. falciparum 3D7; [6]
  EC50: 628 nM
P. falciparum 3D7; [7]
  IC50: 630 nM
Log D measurement; octanol/water, read-out: LogD
  logD: 3.4
[1]
  CC50 at 96 h: > 62000 nM
[2]
  CC50 at 96 h: > 62000 nM

## CCCNC(=O)c1ccc(-n2cnc3ccccc32)s1 [Compound 11, 5-(1H-benzo[d]imidazol-1-yl)-N-propylthiophene-2-carboxamide]
pfDHODH; Table 2b
  IC50: 703 nM
pfDHODH; [3]
  IC50: 700 nM
hsDHODH; [4]
  IC50: > 30000 nM
hsDHODH; [5]
  IC50: > 30000 nM
P. falciparum 3D7; [6]
  EC50: 472 nM
P. falciparum 3D7; [7]
  IC50: 470 nM
Log D measurement; octanol/water, read-out: LogD
  logD: 3.3
[1]
  CC50 at 96 h: > 62000 nM
[2]
  CC50 at 96 h: > 62000 nM

## 5-(1H-indol-1-yl)-N-propylthiophene-2-carboxamide [Compound 7]
pfDHODH; Table 2b
  IC50: 459 nM
pfDHODH; [3]
  IC50: 460 nM
hsDHODH; [4]
  IC50: > 30000 nM
hsDHODH; [5]
  IC50: > 30000 nM
P. falciparum 3D7; Table 2b
  EC50: 708 nM
P. falciparum 3D7; Table 3, [3H]-hypoxanthine uptake
  IC50: 710 nM
Log D measurement
  logD: >3.5

## CCCNC(=O)c1ccc(-n2c(C)cc3ccccc32)s1 [Compound 1, 5-(2-methyl-1H-indol-1-yl)-N-propylthiophene-2-carboxamide]
pfDHODH; 50 μM inhibitor, 200 μM L-DHO, 100 μM CoQD, 60 μM DCIP, read-out: % Inhibition of Product Formation Rate with 50 μM Inhibitor, CoQD
  inhibition at 50 µM: 104%
pfDHODH; DCIP assay, 200 μM L-DHO, 18 μM CoQD, 100 μM DCIP, 20 nM enzyme
  IC50: 42 ± 7 nM
pfDHODH; Table 2b
  IC50: 64 nM
pfDHODH; [3]
  IC50: 70 nM
hsDHODH; DCIP assay, 200 μM L-DHO, 18 μM CoQD, 100 μM DCIP, 20 nM enzyme, read-out: hsDHODH IC50
  IC50: > 30000 nM
hsDHODH; [4]
  IC50: > 30000 nM
hsDHODH; [5]
  IC50: > 30000 nM
P. falciparum 3D7; Plasmodium falciparum, 3D7, Erythrocyte, [3H]-hypoxanthine uptake by parasite infected erythrocytes
  IC50: 470 nM
P. falciparum 3D7; [6]
  EC50: 386 nM
P. falciparum 3D7; [7]
  IC50: 390 nM
Log D measurement; octanol/water, read-out: LogD
  logD: > 3.5
[1]
  CC50 at 96 h: > 62000 nM
[2]
  CC50 at 96 h: > 62000 nM
